# Results reported in patent publication US9212175B2, “Pharmaceutical hypocholesterolemic compositions” (Lipideon Biotechnology AG, priority 2009, dated 2015).
# Tests used:
# [1] = test system: C56BL/6 mice; test: Acute cholesterol absorption inhibition assay in mice; assay type: in vivo; conditions: [3H]-cholesterol counts in plasma 2 h after cholesterol, relative to vehicle control
# Description: Accute Cholesterol Absorption Inhibition Assay in Mice
# Compounds were added to a solution of 0.5% Methylcellulose (Sigma)/5% Solutol, BASF) or another suitable vehicle at a concentration of 0.1-1 mg/ml. C56BL/6 mice (n=3-6/group), aged 6-8 weeks were dosed orally with 0.1 ml of vehicle or 0.1 mL of vehicle containing the test compound (0.5-5 mg/kg) or ezetimibe (10 mg/kg) as positive control. Thirty minutes later all of the mice were dosed orally with 0.1 mL corn oil containing 2 μCi [^3H]-cholesterol per mouse. Two hours after administration of radiolabeled cholesterol, the animals were euthanized and blood collected. Cholesterol counts in plasma were determined, and percent inhibition of cholesterol absorption was calculated relative to the vehicle control.
# [2] = Determination of absorption: unidirectional permeability assay (Cloe Screen, Cyprotex); assay type: in vitro ADME; conditions: human, Caco-2, apical side, cell monolayer, read-out: Papp in cm · s^−1
# Description: It has further been shown that the compounds of the invention display the desired pharmacological activity by evaluation of their potency in vivo (in mice and hamsters). The bioavailability of the compounds of the present invention has been determined by unidirectional Caco2 Permeability measurement.
# Determination of Absorption
# The permeability of the compounds of the present invention was determined using the Cloe Screen® (unidirectional Cloe Screen […] permeability assay; Cyprotex) and is expressed by Papp (cm·s^−1). Caco-2 cells are widely used as an in vitro model for predicting human drug absorption. The Caco-2 cell line is derived from a human colorectal carcinoma, and when cultured, the cells spontaneously differentiate into monolayers of polarised enterocytes. The cells are typically seeded on Transwell™ plates and form a confluent monolayer over 20 days prior to the experiment. On day 20, the test compound is added to the apical side of the membrane and the transport of the compound across the monolayer is monitored over a 2 hour time period. The permeability coefficient (Papp) is calculated from the equation: Papp=(dQ/dt)/(C0xA), where (dQ/dt) is the rate of permeation of the drug across the cells, C0 is the donor compartment concentration at time zero and A is the area of the cell monolayer.
# [3] = test system: Syrian Golden Hamsters; test: Long-term LDL lowering in Syrian Golden hamsters; assay type: in vivo; conditions: hamsters on high fat diet, dose 3 × 1 mg/kg/day, day 14, relative to vehicle control
# Description: Long-Term LDL Lowering in Syrian Golden Hamsters
# Groups of 6 male hamsters weighing 90±10 g are fed a high fat diet (g/100 g: corn oil, 5; coconut oil, 5; cholesterol, 0.2; standard chow, 89.8) for 7 days. Afterwards vehicle or test compounds (3-10 mg/kg bw/day) in a solution of 0.5% Methylcellulose, 5% Solutol or another suitable vehicle are administered at least three times daily for 14 consecutive days. Following an overnight fasting period, blood serum is obtained from the retro-orbital sinus of each animal on day 0 (7 days after initiating of the high fat diet) and on days 8 and 15 after dosing for 7 and 14 days. The serum is assayed for total cholesterol, LDL-cholesterol, HDL-cholesterol and triglycerides. The percent change of treated relative to the vehicle control group is determined.
smiles,measurement,setting,value
"O=C(O)[C@@H]1CCCN1C(=O)COC1(CCc2ccc([C@@H]3[C@@H](CC[C@H](O)c4ccc(F)cc4)C(=O)N3c3ccc(F)cc3)cc2)COC1 [Example 20, (S)-1-(2-(3-(4-((2S,3R)-1-(4-fluorophenyl)-3-((S)-3-(4-fluorophenyl)-3-hydroxypropyl)-4-oxoazetidin-2-yl)phenethyl)oxetan-3-yloxy)acetyl)pyrrolidine-2-carboxylic acid]",Cholesterol Absorption Inhibition (%),[1]; oral dose 1 mg/kg,42%
"O=C(O)COC1(CCc2ccc([C@@H]3[C@@H](CC[C@H](O)c4ccc(F)cc4)C(=O)N3c3ccc(F)cc3)cc2)COC1 [Example 1, 2-(3-(4-((2S,3R)-1-(4-fluorophenyl)-3-((S)-3-(4-fluorophenyl)-3-hydroxypropyl)-4-oxoazetidin-2-yl)phenethyl)oxetan-3-yloxy)acetic acid]",Cholesterol Absorption Inhibition (%),[1]; oral dose 1 mg/kg,87%
same,Papp A→B at 2 h,[2],1.68 ×10⁻⁶ cm/s
"O=C1[C@H](CC[C@H](O)c2ccc(F)cc2)[C@@H](c2ccc(O)cc2)N1c1ccc(F)cc1 [Ezetimibe, reference compound]",Cholesterol Absorption Inhibition (%),[1]; oral dose 10 mg/kg (positive control),87%
same,Papp A→B at 2 h,[2],46 ×10⁻⁶ cm/s
"O=C(COC1(CCc2ccc([C@@H]3[C@@H](CC[C@H](O)c4ccc(F)cc4)C(=O)N3c3ccc(F)cc3)cc2)COC1)NCCS(=O)(=O)O [Example 28, 2-(2-(3-(4-((2S,3R)-1-(4-fluorophenyl)-3-((S)-3-(4-fluorophenyl)-3-hydroxypropyl)-4-oxoazetidin-2-yl)phenethyl)oxetan-3-yloxy)acetamido)ethanesulfonic acid]",Cholesterol Absorption Inhibition (%),[1]; oral dose 1 mg/kg,63%
"O=C(COC1(CCc2ccc([C@@H]3[C@@H](CC[C@H](O)c4ccc(F)cc4)C(=O)N3c3ccc(F)cc3)cc2)COC1)NC(CO)(CO)CO [Example 46, N-(1,3-dihydroxy-2-(hydroxymethyl)propan-2-yl)-2-(3-(4-((2S,3R)-1-(4-fluorophenyl)-3-((S)-3-(4-fluorophenyl)-3-hydroxypropyl)-4-oxoazetidin-2-yl)phenethyl)oxetan-3-yloxy)acetamide]",LDL reduction @ day 14 (%),[3],67%
same,Papp A→B at 2 h,[2],1.09 ×10⁻⁶ cm/s
"O=C(COC1(CCc2ccc([C@@H]3[C@@H](CC[C@H](O)c4ccc(F)cc4)C(=O)N3c3ccc(F)cc3)cc2)COC1)N[C@H](CO)C(=O)O [Example 34, (R)-2-(2-(3-(4-((2S,3R)-1-(4-fluorophenyl)-3-((S)-3-(4-fluorophenyl)-3-hydroxypropyl)-4-oxoazetidin-2-yl)phenethyl)oxetan-3-yloxy)acetamido)-3-hydroxypropanoic acid]",LDL reduction @ day 14 (%),[3],76%
same,Papp A→B at 2 h,[2],0.57 ×10⁻⁶ cm/s
"O=C(O)[C@H]1CCCN1C(=O)COC1(CCc2ccc([C@@H]3[C@@H](CC[C@H](O)c4ccc(F)cc4)C(=O)N3c3ccc(F)cc3)cc2)COC1 [Example 19, (R)-1-(2-(3-(4-((2S,3R)-1-(4-fluorophenyl)-3-((S)-3-(4-fluorophenyl)-3-hydroxypropyl)-4-oxoazetidin-2-yl)phenethyl)oxetan-3-yloxy)acetyl)pyrrolidine-2-carboxylic acid]",Cholesterol Absorption Inhibition (%),[1]; oral dose 1 mg/kg,83%
same,Papp A→B at 2 h,[2],0.14 ×10⁻⁶ cm/s
"O=C(COC1(CCc2ccc([C@@H]3[C@@H](CC[C@H](O)c4ccc(F)cc4)C(=O)N3c3ccc(F)cc3)cc2)COC1)NC1(C(=O)O)CCC1 [Example 35, 1-(2-(3-(4-((2S,3R)-1-(4-fluorophenyl)-3-((S)-3-(4-fluorophenyl)-3-hydroxypropyl)-4-oxoazetidin-2-yl)phenethyl)oxetan-3-yloxy)acetamido)cyclobutanecarboxylic acid]",LDL reduction @ day 14 (%),[3],80%
same,Papp A→B at 2 h,[2],0.73 ×10⁻⁶ cm/s
"NC(=O)[C@H]1CCCN1C(=O)COC1(CCc2ccc([C@@H]3[C@@H](CC[C@H](O)c4ccc(F)cc4)C(=O)N3c3ccc(F)cc3)cc2)COC1 [Example 22, (R)-1-(2-(3-(4-((2S,3R)-1-(4-fluorophenyl)-3-((S)-3-(4-fluorophenyl)-3-hydroxypropyl)-4-oxoazetidin-2-yl)phenethyl)oxetan-3-yloxy)acetyl)pyrrolidine-2-carboxamide]",Cholesterol Absorption Inhibition (%),[1]; oral dose 1 mg/kg,80%
"CC(C)[C@@H](NC(=O)COC1(CCc2ccc([C@@H]3[C@@H](CC[C@H](O)c4ccc(F)cc4)C(=O)N3c3ccc(F)cc3)cc2)COC1)C(=O)O [Example 39, (R)-2-(2-(3-(4-((2S,3R)-1-(4-fluorophenyl)-3-((S)-3-(4-fluorophenyl)-3-hydroxypropyl)-4-oxoazetidin-2-yl)phenethyl)oxetan-3-yloxy)acetamido)-3-methylbutanoic acid]",Cholesterol Absorption Inhibition (%),[1]; oral dose 1 mg/kg,82%
same,LDL reduction @ day 14 (%),[3],74%
same,Papp A→B at 2 h,[2],0.92 ×10⁻⁶ cm/s
"O=C(O)C1CCCCN1C(=O)COC1(CCc2ccc([C@@H]3[C@@H](CC[C@H](O)c4ccc(F)cc4)C(=O)N3c3ccc(F)cc3)cc2)COC1 (stereo partly drawn) [Example 23, 1-(2-(3-(4-((2S,3R)-1-(4-fluorophenyl)-3-((S)-3-(4-fluorophenyl)-3-hydroxypropyl)-4-oxoazetidin-2-yl)phenethyl)oxetan-3-yloxy)acetyl)piperidine-2-carboxylic acid]",Cholesterol Absorption Inhibition (%),[1]; oral dose 1 mg/kg,73%
